Entries after “also recorded” stand apart in the source; their conditions may differ. Like-named read-outs stand apart in the source and are kept apart here. Square brackets hold non-standard residues; d marks the D form. Ends that are not written are not given here.
How the values were obtained:
[1] = tested on: mice; assay: fetal alcohol syndrome (FAS) model in pregnant mice; details: for fetal demise rate: pretreatment 30 minutes prior to alcohol on E8, 20 μg (each), injection, assessed E18, vs alcohol group
[2] = tested on: dissociated cerebral cortical cultures (neurons); format: cell-based, rat; details: 5 days
[3] = tested on: AF64A-treated rats; assay: AF64A cholinotoxicity in adult rats, Morris water maze; format: in vivo; details: for Morris water maze, summation of the two daily tests, vs AF64A / Morris water maze, summation of the two daily tests: 10 microgram per rat per day under the tongue
Excerpt: FIGS. 14A and B illustrate the effect of oral administration of D-NAPVSIPQ+D-SALLRSIPA on learning and memory in rats treated with the cholinotoxin AF-64A. Short-term memory processes were examined by performance in the Morris water maze, measuring the time required to find the hidden platform in the second of two daily trials. The platform location and the starting point in which the animal was placed in the water were held constant within each pair of daily trials, but both locations were changed every day. For the first test, both the platform and the animal were situated in a new location with regard to the pool (with the pool being immobile). The experiment was performed as follows: the animal was positioned on the platform for 0.5 minute, then placed in the water. […] After 0.5 minute on the platform, the animal was placed back in the water (in the previous position) for an additional second test (FIG. 14B) and search for the hidden platform (retained in the previous position). The time required to reach the platform in the second trial was recorded, indicative of short-term (working) memory. All measurements were performed using the computerized video-assisted HVS water maze system (HVS Image Ltd. Hampton, UK). Animals were tested for four days to eliminate random memory defective animals. The designated n is the number of animals tested. Each point is the mean+the standard error.
Rats (male Wistar, 300-350 g) were subjected to two daily tests in a water maze, including a hidden platform (Morris, J. Neurosci. Methods 11:47-60 (1984) and Gordon et al., Neurosci. Lett. 199:1-4 (1995); Gozes et al., J. Neurobiol. 33:329-342 (1997)). Every day for the first test, both the platform and the animal were situated in a new location with regard to the pool (with the pool being immobile). The experiment was performed as follows: the animal was positioned on the platform for 0.5 minutes then placed in the water. The time required to reach the platform (indicative of learning and intact reference memory) was measured (first test). After 0.5 minute on the platform, the animal was placed back in the water (in the previous position) for an additional second test and search for the hidden platform (retained in the previous position). The time required to reach the platform in the second trial was recorded, indicative of short-term (working) memory. All measurements were performed using the computerized video-assisted HVS water maze system (HVS Image Ltd. Hampton, UK). Animals were tested for four days to eliminate random memory defective animals. The best performers were injected i.c.v. at a rate of 0.21 μl/min. with the cholinotoxin ethylcholine aziridium (AF64A, 3 nmolI2 μl/side), control animals received an injection of saline (Gozes et al, Proc. Natl. Acad. Sci. USA 93:427-432 (1996)).
Animals were allowed to recover for one week, followed by daily exposure to three micrograms of D-SAL+three micrograms of D-NAP, in 20 microliter saline, applied orally on the tongue. After a week of oral peptide application, the animals were subjected to two daily tests in the water maze (as above). During the test-period, animals were also given an oral administration of peptide or vehicle (carrier) an hour before the daily test.
FIG. 14C illustrates the effect of oral administration of D-SALLRSIPA alone on learning and memory in rats treated with the cholinotoxin AF-64A. Rats were treated with the cholinotoxin AF-64A and D-SALLRSIPA as described in Gozes et al., J. Pharmacol. Exp. Therap. 293: 1091-1098 (2000), except that D-SALLRSIPA was delivered to AF64A-treated rats was as follows: 10 microgram D-SALLRSIPA (D-SAL) per rat (250-300 g) per day in 50 microliter saline under the tongue, using a micropipette. Peptides were applied once daily for three days, a week after the AF64A lesion. After a 2-day cessation, peptides were applied once daily for another 5 days and tested from day three on. […]

[4] = tested on: choline acetyl transferase activity; details: ApoE-deficient mice with reduced choline acetyl transferase activity; cited from earlier work
[5] = single peptide, 1 μM tetrodotoxin, neuronal cell counts

Substance | fetal demise rate [1] | survival-promoting activity (preventing neuronal cell death associated with electrical blockade with TTX) [2, 5] | cholinergic function [4] | also measured
Asn-Ala-Pro-Val-Ser-Ile-Pro-Gln [D-NAP] | significantly reduced the fetal demise rate; also recorded: prevents fetal demises | very similar, with each exhibiting a complex dose response with two apparent maxima; also recorded: virtually identical in neuronal survival activity in vitro | – | –
Ser-Ala-Leu-Leu-Arg-Ser-Ile-Pro-Ala [D-SAL] ([dS][dA][dL][dL][dR][dS][dI][dP][dA]) | significantly reduced the fetal demise rate; also recorded: prevents fetal demises | identical in both potency and efficacy; also recorded: virtually identical in neuronal survival activity in vitro | – | fetal death ([1]; oral by gavage 30 minutes prior to alcohol, 40 μg, assessed on E18): prevent fetal death; learning and memory, overall conclusion ([3]; D-SALLRSIPA alone, oral, AF64A-treated rats): effective on its own; Morris water maze, summation of the two daily tests, vs AF64A ([3]; Day 1): P<0.04 D-SALLRSIPA-AF64A vs. AF64A; Morris water maze, summation of the two daily tests ([3]; Day 2): not significantly different from either AF64A animals or control; Morris water maze, summation of the two daily tests ([3]; Day 3): No difference; Morris water maze, summation of the two daily tests ([3]; Day 4): No difference; Morris water maze, summation of the two daily tests, vs AF64A ([3]; Day 5, t-test): P<0.04 D-SALLRSIPA-AF64A vs. AF64A
Asn-Ala-Pro-Val-Ser-Ile-Pro-Gln [L-NAP, reference compound] | – | very similar, with each exhibiting a complex dose response with two apparent maxima; also recorded: virtually identical in neuronal survival activity in vitro | significantly increased cholinergic function to control levels | –
D-NA{L-P}VSIPQ: NAPVSIPQ with all amino acids in the D-form, except the third proline residue in the L-form | – | – | – | survival-promoting activity (preventing neuronal cell death associated with electrical blockade with TTX) [2]: retained survival-promoting activity and was effective in cell culture in preventing neuronal cell death
SALLRSIPA [L-SAL] | – | – | less effective | –
SALLRSIPA [reference compound] | – | identical in both potency and efficacy; also recorded: virtually identical in neuronal survival activity in vitro | – | –
